pIC50: −log10 of the molar value.
Test system: 519858-162-T-J1-PDC complex spheroid viability
Experiment: Anticancer human tumor 519858-162-T-J1-PDC patient-derived colon adenocarcinoma cell line growth inhibition [GQUAD]
Conditions: for pIC50: curve of first compound; for viability, T/C: stronger effect = lower value
In short: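 Tumor cells were grown as complex spheroids with HUVEC endothelial cells and mesenchymal stem cells as stroma. G-quadruplex stabilizers were combined with targeted agents over half-log dilutions from near the clinical Cmax, or from 10 microM.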

[1] = second compound 0.0316 µM, first compound 0.000999 µM
[2] = second compound 0.0316 µM, first compound 0.00316 µM
[3] = second compound 0.0316 µM, first compound 0.00999 µM
[4] = second compound 0.0316 µM, first compound 0.0316 µM
[5] = second compound 0.0316 µM, first compound 0.0999 µM
[6] = second compound 0.0316 µM, first compound 0.316 µM
[7] = second compound 0.1 µM, first compound 0.000999 µM
[8] = second compound 0.1 µM, first compound 0.00316 µM
[9] = second compound 0.1 µM, first compound 0.00999 µM
[10] = second compound 0.1 µM, first compound 0.0316 µM
[11] = second compound 0.1 µM, first compound 0.0999 µM
[12] = second compound 0.1 µM, first compound 0.316 µM
[13] = second compound 0.316 µM, first compound 0.000999 µM
[14] = second compound 0.316 µM, first compound 0.00316 µM
[15] = second compound 0.316 µM, first compound 0.00999 µM
[16] = second compound 0.316 µM, first compound 0.0316 µM
[17] = second compound 0.316 µM, first compound 0.0999 µM
[18] = second compound 0.316 µM, first compound 0.316 µM
[19] = second compound 1 µM, first compound 0.000999 µM
[20] = second compound 1 µM, first compound 0.00316 µM
[21] = second compound 1 µM, first compound 0.00999 µM
[22] = second compound 1 µM, first compound 0.0316 µM
[23] = second compound 1 µM, first compound 0.0999 µM
[24] = second compound 1 µM, first compound 0.316 µM
[25] = second compound 3.16 µM, first compound 0.000999 µM
[26] = second compound 3.16 µM, first compound 0.00316 µM
[27] = second compound 3.16 µM, first compound 0.00999 µM
[28] = second compound 3.16 µM, first compound 0.0316 µM
[29] = second compound 3.16 µM, first compound 0.0999 µM
[30] = second compound 3.16 µM, first compound 0.316 µM
[31] = second compound 10 µM, first compound 0.000999 µM
[32] = second compound 10 µM, first compound 0.00316 µM
[33] = second compound 10 µM, first compound 0.00999 µM
[34] = second compound 10 µM, first compound 0.0316 µM
[35] = second compound 10 µM, first compound 0.0999 µM
[36] = second compound 10 µM, first compound 0.316 µM
[37] = second compound 0.0316 µM, first compound 0.1 µM
[38] = second compound 0.0316 µM, first compound 1 µM
[39] = second compound 0.0316 µM, first compound 3.16 µM
[40] = second compound 0.0316 µM, first compound 10 µM
[41] = second compound 0.1 µM, first compound 0.1 µM
[42] = second compound 0.1 µM, first compound 1 µM
[43] = second compound 0.1 µM, first compound 3.16 µM
[44] = second compound 0.1 µM, first compound 10 µM
[45] = second compound 0.316 µM, first compound 0.1 µM
[46] = second compound 0.316 µM, first compound 1 µM
[47] = second compound 0.316 µM, first compound 3.16 µM
[48] = second compound 0.316 µM, first compound 10 µM
[49] = second compound 1 µM, first compound 0.1 µM
[50] = second compound 1 µM, first compound 1 µM
[51] = second compound 1 µM, first compound 3.16 µM
[52] = second compound 1 µM, first compound 10 µM
[53] = second compound 3.16 µM, first compound 0.1 µM
[54] = second compound 3.16 µM, first compound 1 µM
[55] = second compound 3.16 µM, first compound 3.16 µM
[56] = second compound 3.16 µM, first compound 10 µM
[57] = second compound 10 µM, first compound 0.1 µM
[58] = second compound 10 µM, first compound 1 µM
[59] = second compound 10 µM, first compound 3.16 µM
[60] = second compound 10 µM, first compound 10 µM
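Further: spheroids exposed to compounds for 7 days.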
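Wherever viability, T/C is given: 100% = DMSO vehicle control viability.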

## Cc1[nH]c2ccccc2c1CCNCc1ccc(/C=C/C(=O)NO)cc1 + Cc1[nH]c2ccc(F)cc2c1-c1nc2c3cccnc3c3ncccc3c2[nH]1
Second compound 0.0316 µM
  pIC50: < 6.50
Second compound 0.1 µM
  pIC50: 7.04
Second compound 0.316 µM
  pIC50: 6.78
Second compound 1 µM
  pIC50: < 6.50
Second compound 3.16 µM
  pIC50: < 6.50
Second compound 10 µM
  pIC50: 6.87
[1]
  viability, T/C: 99.7%
[2]
  viability, T/C: 117%
[3]
  viability, T/C: 115%
[4]
  viability, T/C: 120%
[5]
  viability, T/C: 64.1%
[6]
  viability, T/C: 49.7%
[7]
  viability, T/C: 82.1%
[8]
  viability, T/C: 128%
[9]
  viability, T/C: 117%
[10]
  viability, T/C: 88.3%
[11]
  viability, T/C: 42%
[12]
  viability, T/C: 51.3%
[13]
  viability, T/C: 113%
[14]
  viability, T/C: 67.8%
[15]
  viability, T/C: 76%
[16]
  viability, T/C: 113%
[17]
  viability, T/C: 59.8%
[18]
  viability, T/C: 37.2%
[19]
  viability, T/C: 107%
[20]
  viability, T/C: 54.1%
[21]
  viability, T/C: 86.5%
[22]
  viability, T/C: 73.3%
[23]
  viability, T/C: 54.5%
[24]
  viability, T/C: 53.2%
[25]
  viability, T/C: 65.3%
[26]
  viability, T/C: 56.5%
[27]
  viability, T/C: 64.8%
[28]
  viability, T/C: 54%
[29]
  viability, T/C: 70.2%
[30]
  viability, T/C: 46.7%
[31]
  viability, T/C: 76.9%
[32]
  viability, T/C: 77.7%
[33]
  viability, T/C: 55%
[34]
  viability, T/C: 65.5%
[35]
  viability, T/C: 52.4%
[36]
  viability, T/C: 43.2%

## O=C(c1cc(Cc2n[nH]c(=O)c3ccccc23)ccc1F)N1CCN(C(=O)C2CC2)CC1 + Cc1cnc(CNC(=O)c2c(=O)c3ccc(N4CCCN(C)CC4)nc3n3c2sc2ccccc23)cn1
Second compound 0.0316 µM
  pIC50: < 5.00
Second compound 0.1 µM
  pIC50: < 5.00
Second compound 0.316 µM
  pIC50: < 5.00
Second compound 1 µM
  pIC50: < 5.00
Second compound 3.16 µM
  pIC50: > 7.50
Second compound 10 µM
  pIC50: > 7.50
[4]
  viability, T/C: 92.2%
[37]
  viability, T/C: 89.5%
[6]
  viability, T/C: 89.7%
[38]
  viability, T/C: 81.5%
[39]
  viability, T/C: 64.2%
[40]
  viability, T/C: 74.7%
[10]
  viability, T/C: 52.6%
[41]
  viability, T/C: 65.7%
[12]
  viability, T/C: 65.3%
[42]
  viability, T/C: 58.8%
[43]
  viability, T/C: 48.3%
[44]
  viability, T/C: 74.5%
[16]
  viability, T/C: 82.6%
[45]
  viability, T/C: 72.4%
[18]
  viability, T/C: 50.3%
[46]
  viability, T/C: 47.6%
[47]
  viability, T/C: 52.9%
[48]
  viability, T/C: 60.6%
[22]
  viability, T/C: 68.6%
[49]
  viability, T/C: 67.5%
[24]
  viability, T/C: 48.3%
[50]
  viability, T/C: 64.4%
[51]
  viability, T/C: 45.5%
[52]
  viability, T/C: 54.6%
[28]
  viability, T/C: 60%
[53]
  viability, T/C: 31.8%
[30]
  viability, T/C: 39.6%
[54]
  viability, T/C: 39.2%
[55]
  viability, T/C: 47.4%
[56]
  viability, T/C: 41.2%
[34]
  viability, T/C: 47.9%
[57]
  viability, T/C: 46.5%
[36]
  viability, T/C: 49.7%
[58]
  viability, T/C: 44.6%
[59]
  viability, T/C: 49%
[60]
  viability, T/C: 57.2%

## Cn1ncnc1[C@H]1c2n[nH]c(=O)c3cc(F)cc(c23)N[C@@H]1c1ccc(F)cc1 + Cc1cnc(CNC(=O)c2c(=O)c3ccc(N4CCCN(C)CC4)nc3n3c2sc2ccccc23)cn1
Second compound 0.0316 µM
  pIC50: < 6.50
Second compound 0.1 µM
  pIC50: < 6.50
Second compound 0.316 µM
  pIC50: < 6.50
Second compound 1 µM
  pIC50: < 6.50
Second compound 3.16 µM
  pIC50: > 9.00
Second compound 10 µM
  pIC50: > 9.00
[1]
  viability, T/C: 96.5%
[2]
  viability, T/C: 116%
[3]
  viability, T/C: 101%
[4]
  viability, T/C: 72.1%
[5]
  viability, T/C: 70.2%
[6]
  viability, T/C: 57.8%
[7]
  viability, T/C: 60.1%
[8]
  viability, T/C: 92.9%
[9]
  viability, T/C: 79.5%
[10]
  viability, T/C: 79.5%
[11]
  viability, T/C: 56.8%
[12]
  viability, T/C: 65.2%
[13]
  viability, T/C: 85.3%
[14]
  viability, T/C: 81.8%
[15]
  viability, T/C: 65.9%
[16]
  viability, T/C: 72%
[17]
  viability, T/C: 61.5%
[18]
  viability, T/C: 58.9%
[19]
  viability, T/C: 85.2%
[20]
  viability, T/C: 72.3%
[21]
  viability, T/C: 60.9%
[22]
  viability, T/C: 73.3%
[23]
  viability, T/C: 69.9%
[24]
  viability, T/C: 72.7%
[25]
  viability, T/C: 47.3%
[26]
  viability, T/C: 48.7%
[27]
  viability, T/C: 50.3%
[28]
  viability, T/C: 38.7%
[29]
  viability, T/C: 43.1%
[30]
  viability, T/C: 52.3%
[31]
  viability, T/C: 26.9%
[32]
  viability, T/C: 54%
[33]
  viability, T/C: 44.4%
[34]
  viability, T/C: 50.4%
[35]
  viability, T/C: 49.1%
[36]
  viability, T/C: 72%

## CC(=O)O[C@H]1C(=O)[C@@]2(C)[C@H]([C@H](OC(=O)c3ccccc3)[C@]3(O)C[C@H](OC(=O)[C@H](O)[C@@H](NC(=O)c4ccccc4)c4ccccc4)C(C)=C1C3(C)C)[C@]1(OC(C)=O)CO[C@@H]1C[C@@H]2O + Cc1cnc(CNC(=O)c2c(=O)c3ccc(N4CCCN(C)CC4)nc3n3c2sc2ccccc23)cn1
Second compound 0.0316 µM
  pIC50: < 5.00
Second compound 0.1 µM
  pIC50: < 5.00
Second compound 0.316 µM
  pIC50: < 5.00
Second compound 1 µM
  pIC50: < 5.00
Second compound 3.16 µM
  pIC50: < 5.00
Second compound 10 µM
  pIC50: > 7.50
[4]
  viability, T/C: 78.7%
[37]
  viability, T/C: 93.7%
[6]
  viability, T/C: 72.2%
[38]
  viability, T/C: 75.3%
[39]
  viability, T/C: 92.5%
[40]
  viability, T/C: 93.3%
[10]
  viability, T/C: 104%
[41]
  viability, T/C: 90.9%
[12]
  viability, T/C: 74.8%
[42]
  viability, T/C: 91.5%
[43]
  viability, T/C: 103%
[44]
  viability, T/C: 67.8%
[16]
  viability, T/C: 65.2%
[45]
  viability, T/C: 57.1%
[18]
  viability, T/C: 60.6%
[46]
  viability, T/C: 68.9%
[47]
  viability, T/C: 70.9%
[48]
  viability, T/C: 73.4%
[22]
  viability, T/C: 55.7%
[49]
  viability, T/C: 70.9%
[24]
  viability, T/C: 48.5%
[50]
  viability, T/C: 58.6%
[51]
  viability, T/C: 67.1%
[52]
  viability, T/C: 56.1%
[28]
  viability, T/C: 59.7%
[53]
  viability, T/C: 67.7%
[30]
  viability, T/C: 45.9%
[54]
  viability, T/C: 66.8%
[55]
  viability, T/C: 51.4%
[56]
  viability, T/C: 59.9%
[34]
  viability, T/C: 26.7%
[57]
  viability, T/C: 44.4%
[36]
  viability, T/C: 38.7%
[58]
  viability, T/C: 58.5%
[59]
  viability, T/C: 48.9%
[60]
  viability, T/C: 69.6%

Source: PubChem BioAssay AID2060507 (Molecular Pharmacology Branch, DTP, NCI, 2025)
